16 molecules from US8039668B2, “Naphthalene-based inhibitors of anti-apoptotic proteins” (Burnham Institute for Medical Research, priority 2008, dated 2011) can be followed below.

Where two headings read alike, the source gives them in different places. Bounds are passed on as bounds.

In one test the target is BCL-XL (Homo sapiens, UniProt Q07817). Put plainly: 1D 1H-NMR binding assay. More on the design: key to 1D-^1H NMR: +++, Very Active; ++, Active; +, Mild; −, Weak. The settings on record: for 1D-^1H NMR: BCL-XL 25 μM, compound 200 μM; for 1D ^1H-NMR Binding Assay (BCL-XL): Table 9. As for the experimental part: By observing the aliphatic region of the spectra, binding could be readily detected due to chemical shift changes in active site methyl groups of Ile, Leu, Thr, Val or Ala (region between −0.8 and 0.3 ppm). All experiments were performed with a 600 MHz spectrometer Bruker Avance 600 equipped with four rf channels and z-axis pulse-field gradients.

A further test relates to H1299 cell line. The experiment in a line: Cell viability, ATP-LITE assay. It counts as cell-based, human. The settings on record: Homo sapiens. As for the experimental part:
(§1) The activity of the compounds against human cancer cell lines (PC3ML, H460, H1299, RS11846) were assessed by using the ATP-LITE assay (PerkinElmer). All cells were seeded in either F12 or RPMI1640 medium with 5 mM L-glutamine supplemented with 5% fetal bovine serum (Mediatech Inc.), penicillin and streptomycin (Omega). For maintenance, cells were cultured in 5% FBS. Cells plated into 96 well plates at varying initial densities depending on doubling time. H460 and H1299 plated at 2000 cells/well, A549 and PC3 at 3000 cells/well, and RS118456S at 10,000 cells/well. Compounds were diluted to final concentrations with 0.1% DMSO. Prior to dispensing compounds onto cells, fresh 5% media was placed into wells. Administration of compounds occurred 24 hours after seeding into the fresh media. Cell viability was evaluated using ATP-LITE reagent (PerkinElmer) after 72 hours of treatment. Data were normalized to the DMSO control-treated cells using Prism version 5.01 (Graphpad Software).

For test [1], the system named is H460 human lung cell line. Put plainly: Cell viability, ATP-LITE assay. It counts as cell-based. The settings on record: Homo sapiens. The protocol: as §1
In a further test the test system is PC3ML cells. Put plainly: Cell viability, ATP-LITE assay. It counts as cell-based, human. The settings on record: Homo sapiens, PC3-ML, ATP-LITE assay. As for the experimental part: as §1
For test [2], the system named is human lymphoma RS11846 cell line. Put plainly: Apoptosis, Annexin V-FITC and propidium iodide assay. It counts as cell-based. As to conditions: Homo sapiens.
Setting [3] is: NCI-H1299, heading: EC50 H1299, Table 3, ATP-LITE assay, read-out: EC50 H1299.
[4] abbreviates: Table 3, heading: EC50 PC3ML, read-out: EC50 PC3ML.
The mark [5] stands for this setting: NCI-H460, heading: EC50 H460, Table 3, ATP-LITE assay, read-out: EC50 H460.
Setting [6] is: Table 3, Annexin V-FITC and propidium iodide assay, heading: EC50 RS11846, read-out: EC50 RS11846.
Where [7] appears, read: NCI-H1299, read-out: EC50 H1299.
The mark [8] stands for this setting: read-out: EC50 RS11846, Table 3, Annexin V-FITC and propidium iodide assay.

Chain of BCL-XL (Q07817 whole entry): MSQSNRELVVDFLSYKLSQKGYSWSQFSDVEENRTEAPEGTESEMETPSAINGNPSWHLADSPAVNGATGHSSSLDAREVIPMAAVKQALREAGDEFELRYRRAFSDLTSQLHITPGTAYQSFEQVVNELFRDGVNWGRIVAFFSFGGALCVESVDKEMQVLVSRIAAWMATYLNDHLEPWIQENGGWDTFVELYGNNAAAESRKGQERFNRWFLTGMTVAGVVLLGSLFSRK

For `Cc1cc2c(C(=O)Nc3ccccc3)c(O)c(O)cc2c(O)c1-c1c(C)cc2c(C(=O)Nc3ccccc3)c(O)c(O)cc2c1O` [Compound 8a, 1,1′,6,6′,7,7′-hexahydroxy-3,3′-dimethyl-N^5,N^5′-diphenyl-2,2′-binaphthyl-5,5′-dicarboxamide], on BCL-XL (Table 3), the “1D-^1H NMR” value was “+”. Besides, the EC50 is 8 µM in the test on H1299 cell line (setting [3]) and 3.5 µM in test [1] (NCI-H460, Table 3, ATP-LITE assay, heading: EC50 H460, read-out: EC50 H460).

In the case of `Cc1cc2c(C(=O)NC3CCCC3)c(O)c(O)cc2c(O)c1-c1c(C)cc2c(C(=O)NC3CCCC3)c(O)c(O)cc2c1O` [Compound 8b, N^5,N^5′-dicyclopentyl-1,1′,6,6′,7,7′-hexahydroxy-3,3′-dimethyl-2,2′-binaphthyl-5,5′-dicarboxamide], the “1D-^1H NMR” value at BCL-XL (Table 3) is reported as “+”. Further, the EC50 came to 8 µM with H1299 cell line (setting [3]), 12.2 µM with PC3ML cells (setting [4]), 8.5 µM in test [1] (setting [5]) and 13.7 µM in test [2] (setting [6]).

`Cc1cc2c(C(=O)Nc3ccc(Oc4ccccc4)cc3)c(O)c(O)cc2c(O)c1-c1c(C)cc2c(C(=O)Nc3ccc(Oc4ccccc4)cc3)c(O)c(O)cc2c1O` [Compound 8c, 1,1′,6,6′,7,7′-hexahydroxy-3,3′-dimethyl-N^5,N^5′-bis(4-phenoxyphenyl)-2,2′-binaphthyl-5,5′-dicarboxamide]: the “1D-^1H NMR” value on BCL-XL (Table 3) was “+”. Also, the EC50 with H1299 cell line (setting [3]) worked out at 17 µM; in the test on PC3ML cells (setting [4]), 8.5 µM; in test [1] (setting [5]), 10.1 µM; in test [2] (setting [6]) it was 10.8 µM.

For `CCc1cccc(NC(=O)c2c(O)c(O)cc3c(O)c(-c4c(C)cc5c(C(=O)Nc6cccc(CC)c6)c(O)c(O)cc5c4O)c(C)cc23)c1` [Compound 8d, N^5,N^5′-bis(3-ethylphenyl)-1,1′,6,6′,7,7′-hexahydroxy-3,3′-dimethyl-2,2′-binaphthyl-5,5′-dicarboxamide], the “1D-^1H NMR” value on BCL-XL (Table 3) is given as “+”. In addition, the EC50 with H1299 cell line (setting [3]) came to 5 µM; in the test with PC3ML cells (setting [4]) it was 8.3 µM; in test [1] (setting [5]), 4.1 µM; in test [2] (setting [6]) it was 4.7 µM.

As to `Cc1cc2c(C(=O)Nc3cccc(C(F)(F)F)c3)c(O)c(O)cc2c(O)c1-c1c(C)cc2c(C(=O)Nc3cccc(C(F)(F)F)c3)c(O)c(O)cc2c1O` [Compound 8e, 1,1′,6,6′,7,7′-hexahydroxy-3,3′-dimethyl-N^5,N^5′-bis(3-(trifluoromethyl)phenyl)-2,2′-binaphthyl-5,5′-dicarboxamide], the “1D-^1H NMR” value on BCL-XL (Table 3) is given as “+”. Further, the EC50 in the test with H1299 cell line (setting [3]) turned out to be 28.7 µM; in the test with PC3ML cells (setting [4]), 12.2 µM; in test [1] (setting [5]), 16.7 µM; in test [2] (setting [6]), 12.6 µM.

Take `CCC(NC(=O)c1c(O)c(O)cc2c(O)c(-c3c(C)cc4c(C(=O)NC(CC)c5ccccc5)c(O)c(O)cc4c3O)c(C)cc12)c1ccccc1` (stereo not drawn) [Compound 8f, 1,1′,6,6′,7,7′-hexahydroxy-3,3′-dimethyl-N^5,N^5′-bis(1-phenylpropyl)-2,2′-binaphthyl-5,5′-dicarboxamide]: the “1D-^1H NMR” value at BCL-XL (Table 3) is “+++”. In addition, the concentration for a half-maximal effect (EC50) turned out to be 1.5 µM in test [1] (setting [5]) and 4.2 µM in test [2] (setting [6]).

As to `Cc1cc2c(C(=O)NCc3ccccc3)c(O)c(O)cc2c(O)c1-c1c(C)cc2c(C(=O)NCc3ccccc3)c(O)c(O)cc2c1O` [Compound 8g, N^5,N^5′-dibenzyl-1,1′,6,6′,7,7′-hexahydroxy-3,3′-dimethyl-2,2′-binaphthyl-5,5′-dicarboxamide], the “1D-^1H NMR” value at BCL-XL (Table 3) is listed as “+”. The EC50 in the test with H1299 cell line (setting [7]) was found to be 3.6 µM; in the test with PC3ML cells (read-out: EC50 PC3ML, Table 3), 13.7 µM; in test [1] (NCI-H460, read-out: EC50 H460), 4.6 µM; in test [2] (setting [8]), 9.3 µM.

On to `Cc1cccc(CNC(=O)c2c(O)c(O)cc3c(O)c(-c4c(C)cc5c(C(=O)NCc6cccc(C)c6)c(O)c(O)cc5c4O)c(C)cc23)c1` [Compound 8h, 1,1′,6,6′,7,7′-hexahydroxy-3,3′-dimethyl-N^5,N^5′-bis(3-methylbenzyl)-2,2′-binaphthyl-5,5′-dicarboxamide], for which the “1D-^1H NMR” value on BCL-XL (Table 3) was “+++”. Also, the EC50 in the test with H1299 cell line (setting [3]) was 3.1 µM; in the test with PC3ML cells (Table 3, read-out: EC50 PC3ML) it was 10.2 µM; in test [1] (setting [5]) it was 2.9 µM; in test [2] (setting [6]) it was 4.8 µM.

On to `Cc1cc2c(C(=O)NCc3cccc(Cl)c3)c(O)c(O)cc2c(O)c1-c1c(C)cc2c(C(=O)NCc3cccc(Cl)c3)c(O)c(O)cc2c1O` [Compound 8i, N^5,N^5′-bis(3-chlorobenzyl)-1,1′,6,6′,7,7′-hexahydroxy-3,3′-dimethyl-2,2′-binaphthyl-5,5′-dicarboxamide], for which, on BCL-XL (Table 3), the “1D-^1H NMR” value is listed as “+++”. For the same molecule, the EC50 was 5.2 µM in the test on H1299 cell line (setting [7]); 8.3 µM with PC3ML cells (read-out: EC50 PC3ML, Table 3); 3.3 µM in test [1] (NCI-H460, read-out: EC50 H460); 7.3 µM in test [2] (setting [8]).

With `Cc1cc2c(C(=O)NCC3CC3)c(O)c(O)cc2c(O)c1-c1c(C)cc2c(C(=O)NCC3CC3)c(O)c(O)cc2c1O` [Compound 8l, N^5,N^5′-bis(cyclopropylmethyl)-1,1′,6,6′,7,7′-hexahydroxy-3,3′-dimethyl-2,2′-binaphthyl-5,5′-dicarboxamide], the “1D-^1H NMR” value at BCL-XL (Table 3) is reported as “+”. In addition, the EC50 in test [2] (setting [6]) is more than 10 µM.

Take `Cc1cccc(CCNC(=O)c2c(O)c(O)cc3c(O)c(-c4c(C)cc5c(C(=O)NCCc6cccc(C)c6)c(O)c(O)cc5c4O)c(C)cc23)c1` [Compound 8o, 1,1′,6,6′, 7,7′-hexahydroxy-3,3′-dimethyl-N^5,N^5′-bis(3-methylphenethyl)-2,2′-binaphthyl-5,5′-dicarboxamide]: the “1D-^1H NMR” value on BCL-XL (Table 3) is on record as “+”. Besides, the EC50 worked out at 0.7 µM in test [1] (NCI-H460, Table 3, ATP-LITE assay, read-out: EC50 H460) and 5.6 µM in test [2] (setting [6]).

Regarding `Cc1cc2c(CC(C)C)c(O)c(O)cc2c(O)c1-c1c(C)cc2c(CC(C)C)c(O)c(O)cc2c1O` [Compound 12a, 5,5′-diisobutyl-3,3′-dimethyl-2,2′-binaphthyl-1,1′,6,6′,7,7′-hexaol], the “1D-^1H NMR” value on BCL-XL (Table 4) is recorded as “+”.

Regarding `Cc1cc2c(CCC(C)C)c(O)c(O)cc2c(O)c1-c1c(C)cc2c(CCC(C)C)c(O)c(O)cc2c1O` [Compound 12b, 5,5′-diisopentyl-3,3′-dimethyl-2,2′-binaphthyl-1,1′,6,6′,7,7′-hexaol], the “1D-^1H NMR” value on BCL-XL (Table 4) was “+”.

Consider `Cc1cc2c(Cc3ccccc3)c(O)c(O)cc2c(O)c1-c1c(C)cc2c(Cc3ccccc3)c(O)c(O)cc2c1O` [Compound 12d, 5,5′-dibenzyl-3,3′-dimethyl-2,2′-binaphthyl-1,1′,6,6′,7,7′-hexaol], for which the “1D-^1H NMR” value at BCL-XL (Table 4) was “+”. In addition, the EC50 in the test on H1299 cell line (NCI-H1299, ATP-LITE assay, read-out: EC50 H1299) amounted to 1.28 µM; in the test with PC3ML cells (read-out: EC50 PC3ML), 8.3 µM; in test [1] (NCI-H460, ATP-LITE assay, read-out: EC50 H460), 1.2 µM; in test [2] (Annexin V-FITC and propidium iodide assay, read-out: EC50 RS11846), 3.2 µM.

For the molecule `CCC(C)C(=O)c1c(O)c(O)cc2c(O)c(-c3c(C)cc4c(C(=O)C(C)CC)c(O)c(O)cc4c3O)c(C)cc12` (stereo not drawn) [Compound XIX, 1,1′-(1,1′,6,6′,7,7′-hexahydroxy-3,3′-dimethyl-2,2′-binaphthyl-5,5′-diyl)bis(2-methylbutan-1-one)], the “1D ^1H-NMR Binding Assay (BCL-XL)” value at BCL-XL is “+”. In addition, the EC50 in test [2] (Table 9, read-out: RS11846 EC50 (Annexin V- and propidium iodide assay)) was 17.1 µM.

For the molecule `CCCCC(=O)c1c(O)c(O)cc2c(O)c(-c3c(C)cc4c(C(=O)CCCC)c(O)c(O)cc4c3O)c(C)cc12` [Compound XX, 1,1′-(1,1′,6,6′,7,7′-hexahydroxy-3,3′-dimethyl-2,2′-binaphthyl-5,5′-diyl)dipentan-1-one], at BCL-XL, the “1D ^1H-NMR Binding Assay (BCL-XL)” value is recorded as “+”. The EC50 in test [2] (read-out: RS11846 EC50 (Annexin V- and propidium iodide assay), Table 9) is 11.7 µM.
